The record followed here is the OligoGym collection.

The target in one series is SNHG14. To be noted: ASO, Human Neuronal Cell.
The next series has as its target SOD1. To be noted: ASO.

Several values for one entry are separate records, joined by “and”; a condition that tells them apart may be missing. Identical values can stand only once. After the bases stand the sugars from the 5' end (letter, count) and the backbone: PS all phosphorothioate, else s phosphorothioate and o phosphodiester by linkage. Methylation of C is not given here. e = 2'-O-(2-methoxyethyl) (MOE); l = locked nucleic acid (LNA); k = constrained ethyl (cEt); d = 2'-deoxy (DNA)

The sequence “ATTTACACTTAATTATACTT (sugars lldlddlddddddllldlll, PS)” gave a target mRNA inhibition with SNHG14 (7.5 µM) of 10%.

As to “TTATAGCCATTCTATCT (sugars ldddlddddddllddll, PS)”, in the series with SNHG14 (7.5 µM), the target mRNA inhibition came to 16%. The sequence “TTATAGCCATTCTATCT (sugars lldldddddddldddll, PS)” returned a target mRNA inhibition with SNHG14 (7.5 µM) of 59%. As for “TTATAGCCATTCTATCT (sugars lldddddddddldldll, PS)”, in the series with SNHG14 (7.5 µM), the target mRNA inhibition stood at 56%. Still for that read-out and setting: for “TTATAGCCATTCTATCT (sugars lldldddddddldldll, PS)” the value was 26%; for “CAACATTATTAACCACCTTA (sugars l1 d15 l4, PS)”, 36%; for “GATCATTCTCAACAATT (sugars l2 d1 l2 d7 l5, PS)”, 25%. Still for that read-out and setting: for “TTTATCAATATCTTCTCAC (sugars ldlddlddddddldddlll, PS)” the value was 61%; for “TTCTGTATACACCATCCC (sugars ldlddddddddddlddll, PS)”, 63%; for “TCCATTTATTTCCATTTATT (sugars l2 d11 l2 d3 l2, PS)”, 58%. Same read-out and setting: for “TTATACCTTTCTTTAACCCT (sugars ldlddddddddddlddddll, PS)” the value was 60%; for “TTTTTTCTTACTATCTTCAA (sugars lldldddddddddddldlll, PS)”, 51%; for “TTATAGCCATTCTATCT (sugars lddldddddddldddll, PS)”, 36%. With “AAGATCATTCTCAACAAT (sugars l4 d9 l5, PS)”, in the series with SNHG14 (7.5 µM), the target mRNA inhibition was 52%. In the case of “TATACCTTTCTTTAACCCTT (sugars ldddddldddddddddldll, PS)”, the target mRNA inhibition with SNHG14 (7.5 µM) is 66%. “CACAATCAACAACAAATA (sugars l4 d12 l2, PS)”: the target mRNA inhibition was 40% in the series with SNHG14 (0.2 µM) and 54% with SNHG14 (1 µM). As to “AAATTATTTATACACCATCA (sugars ldlddldddddddldlldll, PS)”, the target mRNA inhibition in the series with SNHG14 (7.5 µM) came out at 60%. ATCCTATGTTAATACT (sugars l4 d10 l2, PS): the values for the target mRNA inhibition in the series with SNHG14 (0.2 µM) and with SNHG14 (1 µM) were 14% and 33%, respectively. Take “ATCATTCTCAACAATTAA (sugars l1 d1 l4 d6 l6, PS)”: in the series with SNHG14 (7.5 µM), the target mRNA inhibition is 4%. Regarding “ACATTTCTACAGCTAG (sugars ekddddddddekekee, linkages s1 o1 s8 o3 s2)”, the target mRNA inhibition in the series with SOD1 (A431, 0.12 µM) was 1%; in the series with SOD1 (A431, 0.6 µM), 27%; in the series with SOD1 (A431, 3 µM) it was 32%; with SOD1 (A431, 15 µM), 47%. “TAATGCTTCCCCACACC (sugars e3 k2 d7 k2 e3, PS)” displayed a target mRNA inhibition in the series with SOD1 (HepG2, 3 µM) of 52%. “CTGTATTATCTCCAAACTCA (sugars e5 d10 e5, PS)”: the target mRNA inhibition with SOD1 (HepG2, 5 µM) is 32% and 28%. Turning to “GGTCATTGAAACAGACA (sugars e3 k2 d7 k2 e3, PS)”, the target mRNA inhibition with SOD1 (HepG2, 3 µM) was 11%. In the case of “CTTCAATAGACACATCGGCC (sugars e5 d10 e5, PS)”, the target mRNA inhibition with SOD1 (HepG2, 5 µM) was 39% and 16%.

The sequence “CCGAGGACTGCAACGGAAAC (sugars e5 d10 e5, PS)” gave a target mRNA inhibition in the series with SOD1 (HepG2, 4 µM) of 29%. “ATTCACAGGCTTGAATG (sugars e3 k2 d7 k2 e3, PS)” gave a target mRNA inhibition with SOD1 (HepG2, 3 µM) of 11%. In turn, “CAATTACACCACAAGCC (sugars e3 k2 d7 k2 e3, PS)” returned a target mRNA inhibition in the series with SOD1 (HepG2, 3 µM) of 33%.

With “TGGGCGATCCCAATTAC (sugars e2 k2 d9 k2 e2, PS)”, the target mRNA inhibition with SOD1 (HepG2, 4 µM) was found to be 46%. With “CCGTCGCCCTTCAGCACGCA (sugars e5 d10 e5, PS)”, the target mRNA inhibition is 0% and 5% with SOD1 (A431, 0.12 µM); 7% and 0% in the series with SOD1 (A431, 0.6 µM); 17% and 0% and 7% with SOD1 (A431, 3 µM); 0% and 3% with SOD1 (HepG2, 0.1875 µM); 0% and 14% with SOD1 (HepG2, 0.222 µM). On to “CTTCCCCACACCTTCA (sugars kekeddddddddekek, linkages s1 o3 s8 o1 s2)”, for which the target mRNA inhibition with SOD1 (A431, 0.12 µM) turned out to be 0%; with SOD1 (A431, 0.6 µM) it was 8%; with SOD1 (A431, 3 µM), 8%; in the series with SOD1 (A431, 15 µM), 18%; with SOD1 (HepG2, 0.222 µM), 8%; in the series with SOD1 (HepG2, 0.667 µM), 14%. In addition, the target mRNA inhibition with SOD1 (HepG2, 2 µM) turned out to be 51%; in the series with SOD1 (HepG2, 6 µM), 76%.

Regarding “AGTCTGGCAAAATACAG (sugars e3 k2 d7 k2 e3, PS)”, the target mRNA inhibition with SOD1 (HepG2, 3 µM) was determined as 1%. For “TAATGTTTATCAGGAT (sugars ekddddddddekekee, linkages s1 o1 s8 o3 s2)”, the target mRNA inhibition worked out at 1% with SOD1 (A431, 0.12 µM); 9% with SOD1 (A431, 0.6 µM); 22% with SOD1 (A431, 3 µM); 46% in the series with SOD1 (A431, 15 µM). For “TTCCTTCTGCTCGAAAT (sugars e3 k2 d7 k2 e3, PS)”, in the series with SOD1 (HepG2, 3 µM), the target mRNA inhibition was found to be 13%.

As for “CACTTTTAAGATTACAG (sugars e2 k2 d8 k2 e3, PS)”, the target mRNA inhibition with SOD1 (HepG2, 5 µM) was 37%. “GTCATTGAAACAGACAT (sugars e3 k2 d7 k2 e3, PS)”: the target mRNA inhibition with SOD1 (HepG2, 3 µM) turned out to be 23%. For “GGCCACACCATCTTTGTCAG (sugars e5 d10 e5, PS)”, the target mRNA inhibition with SOD1 (HepG2, 5 µM) was 23% and 5%.

Take “TGGGCCGTCGCCCTTCAGCA (sugars e5 d10 e5, PS)”: in the series with SOD1 (HepG2, 4 µM), the target mRNA inhibition was 12%. Regarding “GGTTTTTATTCACAGGC (sugars e3 k2 d7 k2 e3, PS)”, in the series with SOD1 (HepG2, 3 µM), the target mRNA inhibition was 22%. Same read-out and setting: the value for “ATTTCTACAGCTAGCAG (sugars e3 k2 d7 k2 e3, PS)” was 45%. For “AATGTTTATCAGGATAC (sugars e2 k2 d8 k2 e3, PS)”, the target mRNA inhibition in the series with SOD1 (HepG2, 0.1875 µM) stood at 51%; with SOD1 (HepG2, 0.75 µM) it was 79%; with SOD1 (HepG2, 3 µM), 92%; with SOD1 (HepG2, 4 µM), 89%; with SOD1 (HepG2, 12 µM), 96%. For the sequence “AGAAATTCTGACAAGTT (sugars e3 k2 d7 k2 e3, PS)”, in the series with SOD1 (HepG2, 3 µM), the target mRNA inhibition was found to be 8%.

“TACAGGTCATTGAAACA (sugars e2 k2 d9 k2 e2, PS)” had a target mRNA inhibition in the series with SOD1 (HepG2, 5 µM) of 38%. Sequence “CTGGCAAAATACAGGTC (sugars e2 k2 d8 k2 e3, PS)” showed a target mRNA inhibition with SOD1 (HepG2, 5 µM) of 25%. In turn, “AGCAGTCACATTGCCCA (sugars e3 k2 d7 k2 e3, PS)” showed a target mRNA inhibition with SOD1 (HepG2, 3 µM) of 18%. On the same count and under the same terms, the value for “ATCCAAGGGAATGTTTA (sugars e3 k2 d7 k2 e3, PS)” was 42%.

Sequence “TTCACAGGCTTGAATGA (sugars e2 k2 d9 k2 e2, PS)” displayed a target mRNA inhibition with SOD1 (HepG2, 5 µM) of 16%. Same read-out and setting: the value for “GTGATTTAAGTCTGGCA (sugars e2 k2 d9 k2 e2, PS)” was 69%.

The sequence “AAACTATACAAATCTTC (sugars e3 k2 d7 k2 e3, PS)” gave a target mRNA inhibition in the series with SOD1 (HepG2, 3 µM) of 26%. “CCCATCTGTGATTTAAG (sugars e2 k2 d8 k2 e3, PS)” gave a target mRNA inhibition with SOD1 (HepG2, 5 µM) of 49%. In turn, “TTGGGCGATCCCAATTA (sugars e2 k2 d9 k2 e2, PS)” gave a target mRNA inhibition in the series with SOD1 (HepG2, 4 µM) of 5%.

“ATAGCCTCATAATAAGT (sugars e2 k2 d9 k2 e2, PS)” yielded a target mRNA inhibition in the series with SOD1 (HepG2, 5 µM) of 27%. For the sequence “GGCGATCCCAATTACAC (sugars e2 k2 d9 k2 e2, PS)”, the target mRNA inhibition with SOD1 (HepG2, 4 µM) was 66%.

Sequence “CAGCTAGCAGGATAACA (sugars e2 k2 d8 k2 e3, PS)” yielded a target mRNA inhibition with SOD1 (HepG2, 4 µM) of 71%. “AGACTACATCCAAGGGA (sugars e3 k2 d7 k2 e3, PS)” showed a target mRNA inhibition with SOD1 (HepG2, 3 µM) of 39%. As for “TGTTTATCAGGATACAT (sugars e2 k2 d9 k2 e2, PS)”, the target mRNA inhibition in the series with SOD1 (HepG2, 0.1875 µM) worked out at 37%; with SOD1 (HepG2, 0.75 µM) it was 63%; with SOD1 (HepG2, 3 µM) it was 83%; with SOD1 (HepG2, 4 µM), 83%; in the series with SOD1 (HepG2, 12 µM) it was 95%.

“ATGATGCCCTGCACTGGGCC (sugars e5 d10 e5, PS)” displayed a target mRNA inhibition with SOD1 (HepG2, 4 µM) of 20%. Same read-out and setting: for “GTCGCCCTTCAGCACGC (sugars e2 k2 d9 k2 e2, PS)” the value was 72%; for “CGATCCCAATTACACCA (sugars e2 k2 d8 k2 e3, PS)”, 57%. As to “TTCCCCACACCTTCACT (sugars e3 k2 d7 k2 e3, PS)”, in the series with SOD1 (HepG2, 3 µM), the target mRNA inhibition stood at 8%.

On to “GGCAAAATACAGGTCAT (sugars e3 k2 d7 k2 e3, PS)”, for which, in the series with SOD1 (HepG2, 3 µM), the target mRNA inhibition was found to be 39%. With “TTTCTCACTACAGGTAC (sugars e2 k2 d8 k2 e3, PS)”, the target mRNA inhibition with SOD1 (HepG2, 5 µM) is 35%. On to “GTGCCATACAGGGTTTT (sugars e2 k2 d8 k2 e3, PS)”, for which the target mRNA inhibition with SOD1 (HepG2, 5 µM) amounted to 20%. Same read-out and setting: the value for “CATGGACCACCAGTGTGCGG (sugars e5 d10 e5, PS)” was 25%. Sequence “GTCCATTACTTTCCTTC (sugars e3 k2 d7 k2 e3, PS)” came in with a target mRNA inhibition in the series with SOD1 (HepG2, 3 µM) of 33%.

On to “TGCTTCCCCACACCTTC (sugars e3 k2 d7 k2 e3, PS)”, for which the target mRNA inhibition with SOD1 (HepG2, 3 µM) was determined as 43%. In the series with SOD1 (HepG2, 5 µM), “CTTTTAATAGCCTCATA (sugars e2 k2 d8 k2 e3, PS)” returned a target mRNA inhibition of 45%.

In the series with SOD1 (HepG2, 5 µM), “TAGCCTCATAATAAGTG (sugars e2 k2 d8 k2 e3, PS)” yielded a target mRNA inhibition of 11%. For the sequence “CAGTGTGCGGCCAATGATGC (sugars e5 d10 e5, PS)”, in the series with SOD1 (HepG2, 5 µM), the target mRNA inhibition is 0%. In the case of “TAGCAGGATAACAGATG (sugars e3 k2 d7 k2 e3, PS)”, in the series with SOD1 (HepG2, 3 µM), the target mRNA inhibition was 34%. For the sequence “TTAAGATTACAGTGTTT (sugars e3 k2 d7 k2 e3, PS)”, the target mRNA inhibition with SOD1 (HepG2, 3 µM) was determined as 54%. On the same count and under the same terms, for “AGAGGATTAAAGTGAGG (sugars e3 k2 d7 k2 e3, PS)” the value was 16%. For “TTTAATGTTTATCAGG (sugars kekeddddddddekek, linkages s1 o3 s8 o1 s2)”, the target mRNA inhibition with SOD1 (A431, 0.12 µM) was found to be 15%; in the series with SOD1 (A431, 0.6 µM) it was 44%; with SOD1 (A431, 3 µM) it was 73%; in the series with SOD1 (A431, 15 µM) it was 85%; with SOD1 (HepG2, 0.222 µM), 73%; in the series with SOD1 (HepG2, 0.667 µM) it was 90%. For the same sequence, the target mRNA inhibition stood at 93% with SOD1 (HepG2, 2 µM) and 97% with SOD1 (HepG2, 6 µM).
